From ChEMBL document CHEMBL1128282 (J Med Chem, 1995) come the findings set out here.

Active and inactive are the calls of the source. The calls are words filed in the database; no cut-off is given here.

Assay [1] addresses T1, Melatonin receptor (Gallus gallus, UniProt P49288+P51050+P49285). In words: Binding affinity in chicken brain membranes by using [2-125I]melatonin in a competition radioligand binding assay. The format is cell membranes, Membrane.
The species named for assay [2] is Xenopus laevis. Put plainly: Pigment aggregation response in Xenopus laevis Melanophores at 10e-5 M of concentration; Antagonist. It counts as functional. To be noted: filed as antagonist.
The species entered for assay [3] is Xenopus laevis. Put plainly: Pigment aggregation response in Xenopus laevis Melanophores at 10e-6 M of concentration; Agonist. It counts as functional. To be noted: filed as agonist.
The species named for assay [4] is Xenopus laevis. In words: Pigment aggregation response in Xenopus laevis Melanophores at 10e-5 M of concentration; Agonist. It counts as functional. As to conditions: filed as agonist.
The species entered for assay [5] is Xenopus laevis. Put plainly: Pigment aggregation response in Xenopus laevis Melanophores at 10e-5 M of concentration; No agonist response. It counts as functional.
The species named for assay [6] is Xenopus laevis. Put plainly: Pigment aggregation response in Xenopus laevis Melanophores at 10e-5 M of concentration; No Agonist response. The format is functional.
For assay [7], the species on record is Xenopus laevis. Put plainly: Pigment aggregation response in Xenopus laevis Melanophores at 10e-8 M of concentration; Agonist response. The format is functional. As to conditions: filed as agonist.
Assay [8] is filed under the species Xenopus laevis. Put plainly: Pigment aggregation response in Xenopus laevis Melanophores; Antagonist. It counts as functional. As to conditions: filed as antagonist.
The species entered for assay [9] is Xenopus laevis. Put plainly: Pigment aggregation response in Xenopus laevis Melanophores at 10e-5 M of concentration; No Agonist/antagonist response. The format is functional.
The target in assay [10] is T1, Melatonin receptor. In words: Binding affinity in chicken brain membranes by using [2-125I]melatonin in a competition radioligand binding assay. The format is cell membranes, Membrane.
The species named for assay [11] is Xenopus laevis. Put plainly: Pigment aggregation response in Xenopus laevis Melanophores at 10e-7 M of concentration; Agonist. The format is functional. As to conditions: filed as agonist.

By Ki is commonly meant a dissociation constant, usually derived from enzyme kinetics or from competition with a known ligand. High values mean a looser hold on the target, low ones a stronger hold on the target.

Regarding `Cn1c(-c2ccccc2)c(CCNC(=O)C2CCC2)c2ccccc21`, the Ki on Melatonin receptor [1] was found to be 726 nM. In addition, the Response result in the assay listed under Xenopus laevis [2] is “Antagonist”.
With `COc1ccc2[nH]c(-c3ccccc3)c(CCNC(=O)C(F)(F)F)c2c1`, at Melatonin receptor [1], the Ki stood at 0.019 nM. This counts as picomolar.
Regarding `CC(=O)NCCc1c(-c2ccccc2)[nH]c2ccccc12`, the Response entry in the assay filed under Xenopus laevis [3] was “Agonist”. The molecule also had a Ki at Melatonin receptor [1] of 100 nM.
The like results for `CCCC(=O)NCCc1c(-c2ccccc2)[nH]c2ccccc12` were, in that order, “Agonist” and 112 nM.
In the same order, the values of `[N-]=[N+]=NCC(=O)NCCc1c(-c2ccccc2)[nH]c2ccccc12` are “Agonist” and 410 nM.
With `CCn1c(-c2ccccc2)c(CCNC(C)=O)c2ccccc21`, the Ki on Melatonin receptor [1] came out at 154 nM. In the assay filed under Xenopus laevis [4], the Response entry is “Agonist”.
As to `CC(Br)C(=O)NCCc1c(-c2ccccc2)[nH]c2ccccc12` (stereo not given), the Ki on Melatonin receptor [1] turned out to be 1900 nM. Also, in the assay listed under Xenopus laevis [5], the Response result was “inactive”.
For `O=C(NCCc1c(-c2ccccc2)[nH]c2ccccc12)C(F)(F)C(F)(F)F`, the Ki at Melatonin receptor [1] amounted to 6500 nM. In the assay filed under Xenopus laevis [6], the Response result is “inactive”.
Turning to `O=C(NCCc1c(-c2ccccc2)[nH]c2ccccc12)C(F)(F)F`, the Response result in the assay listed under Xenopus laevis [3] was “Agonist”. This molecule also had a Ki on Melatonin receptor [1] of 148 nM.
On to `COc1ccc2[nH]c(-c3ccccc3)c(CCNC(C)=O)c2c1`, for which the Ki at Melatonin receptor [1] was 0.0596 nM. Besides, the Response entry in the assay listed under Xenopus laevis [7] was “Agonist”.
In the case of `COc1ccc2[nH]c(-c3ccccc3)c(CCNC(=O)C3CCC3)c2c1`, in the assay filed under Xenopus laevis [3], the Response result was “Agonist”. Besides, the Ki on Melatonin receptor [1] is 2.7 nM.
In the same order, the values of `CC(=O)NCCc1c(-c2ccccc2)n(C)c2ccccc12` are “Agonist” and 63 nM.
As for `O=C(CBr)NCCc1c(-c2ccccc2)[nH]c2ccccc12`, the Response entry in the assay filed under Xenopus laevis [3] is “Agonist”. Moreover, the Ki on Melatonin receptor [1] came to 55 nM.
`CCC(=O)NCCc1c(-c2ccccc2)[nH]c2ccc(OC)cc12` showed a Ki on Melatonin receptor [1] of 0.0466 nM. In addition, the Response result in the assay filed under Xenopus laevis [7] is “Agonist”.
For the molecule `O=C(NCCc1c(-c2ccccc2)[nH]c2ccccc12)C1CCCCC1`, in the assay filed under Xenopus laevis [8], the Response result is “Antagonist”. Further, at Melatonin receptor [1], the inhibition constant (Ki) worked out at 1550 nM.
`O=C(NCCc1c(-c2ccccc2)[nH]c2ccccc12)C12C[C@H]3C[C@@H](C1)C[C@@H](C2)C3` yielded a Ki at Melatonin receptor [1] of 1100 nM. Further, the Response result in the assay filed under Xenopus laevis [9] was “inactive”.
The molecule `COc1ccc2[nH]c(-c3ccccc3)c(CCNC(=O)C3CC3)c2c1` displayed a Ki on Melatonin receptor [1] of 0.3047 nM.
As for `COc1ccc2[nH]c(-c3ccccc3)c(CCNC(=O)C3CCCCC3)c2c1`, the Response entry in the assay filed under Xenopus laevis [3] was “Agonist”. For the same molecule, at Melatonin receptor [1], the Ki is 216 nM.
As for `COc1ccc2[nH]c(-c3ccccc3)c(CCNC(=O)C34C[C@H]5C[C@@H](C3)C[C@@H](C4)C5)c2c1`, the Response result in the assay listed under Xenopus laevis [3] was “Agonist”. This molecule returned a Ki at Melatonin receptor [1] of 1100 nM.
The like results for `CCC(=O)NCCc1c(-c2ccccc2)[nH]c2ccccc12` were, in that order, “Agonist” and 70 nM.
On to `COCC(CNC(=O)C1CCC1)c1c(-c2ccccc2)n(C)c2ccccc12` (stereo not given), for which the Ki on Melatonin receptor [1] is listed as 659 nM. In addition, the Response entry in the assay listed under Xenopus laevis [2] is “Antagonist”.
Consider `O=C(CCc1ccccc1)NCCc1c(-c2ccccc2)[nH]c2ccccc12`, for which the Ki at Melatonin receptor [1] is 7000 nM. The Response result in the assay filed under Xenopus laevis [9] was “inactive”.
As to `O=C(NCCc1c(-c2ccccc2)[nH]c2ccccc12)C1CCCC1`, the Response result in the assay filed under Xenopus laevis [8] was “Antagonist”. Also, the Ki at Melatonin receptor [1] is given as 633 nM.
In the same order, the values of `O=C(NCCc1c(-c2ccccc2)[nH]c2ccccc12)C1CC1` are “Antagonist” and 213 nM.
Regarding `COCC(CNC(C)=O)c1c(-c2ccccc2)n(C)c2ccccc12` (stereo not given), the Response result in the assay listed under Xenopus laevis [2] was “Antagonist”. The Ki on Melatonin receptor [10] stood at 350 nM.
Consider `O=C(NCCc1c(-c2ccccc2)[nH]c2ccccc12)C1CCC1`, for which the Response entry in the assay listed under Xenopus laevis [8] is “Antagonist”. On Melatonin receptor [1], this molecule yielded a Ki of 565 nM.
`CCCC(=O)NCCc1c(-c2ccccc2)[nH]c2ccc(OC)cc12` returned a Ki on Melatonin receptor [1] of 0.0558 nM.
As to `CC(=O)NCC(C)c1c(-c2ccccc2)n(C)c2ccccc12` (stereo not given), the Ki at Melatonin receptor [1] was determined as 5.9 nM. Moreover, the Response result in the assay listed under Xenopus laevis [11] was “Agonist”.
In turn, `CC(CNC(=O)C1CCC1)c1c(-c2ccccc2)n(C)c2ccccc12` (stereo not given) showed a Ki at Melatonin receptor [1] of 222 nM. Moreover, the Response entry in the assay listed under Xenopus laevis [2] is “Antagonist”.
`COc1ccc2[nH]c(-c3ccccc3)c(CCNC(=O)CCc3ccccc3)c2c1`: the Response result in the assay listed under Xenopus laevis [3] is “Agonist”. Besides, the Ki at Melatonin receptor [1] is given as 263 nM.
The like results for `COc1ccc2[nH]c(-c3ccccc3)c(CCNC(=O)C3CCCC3)c2c1` were, in that order, “Agonist” and 32.8 nM.
For the molecule `COc1ccc2[nH]cc(CCNC(C)=O)c2c1`, the Response result in the assay filed under Xenopus laevis [7] was “Agonist”.
